Results from PMC7309601 (Frontiers in Neuroscience, 2020).
“Also recorded” adds a separate entry of the source.

Legend:
[1] = biological target: T1, mouse hippocampus AChE (Mus musculus, UniProt P21836); format: biochemical
T1 construct: from tissue; host or cells: mouse hippocampus homogenate, cleared supernatant
T1 sequence (P21836 32-614): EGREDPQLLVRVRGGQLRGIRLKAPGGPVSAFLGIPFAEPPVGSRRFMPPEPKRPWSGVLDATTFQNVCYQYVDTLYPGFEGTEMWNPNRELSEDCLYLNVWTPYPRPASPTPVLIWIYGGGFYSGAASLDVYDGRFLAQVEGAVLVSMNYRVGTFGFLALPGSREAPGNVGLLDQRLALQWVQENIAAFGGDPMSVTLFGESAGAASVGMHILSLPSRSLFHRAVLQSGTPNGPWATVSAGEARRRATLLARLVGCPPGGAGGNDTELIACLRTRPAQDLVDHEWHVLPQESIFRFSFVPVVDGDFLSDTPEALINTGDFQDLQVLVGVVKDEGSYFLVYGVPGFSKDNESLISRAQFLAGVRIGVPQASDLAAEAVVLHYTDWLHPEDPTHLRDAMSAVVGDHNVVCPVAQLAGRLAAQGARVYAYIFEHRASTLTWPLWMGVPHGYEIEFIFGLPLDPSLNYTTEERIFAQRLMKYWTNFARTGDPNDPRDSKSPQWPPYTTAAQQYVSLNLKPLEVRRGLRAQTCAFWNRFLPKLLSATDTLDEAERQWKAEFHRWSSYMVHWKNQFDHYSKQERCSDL
Protocol: Acetylcholinesterase activity was quantified using a cholinesterase activity assay kit according to manufacturer’s recommendations (MAK119; Sigma, St. Louis, MO, United States). Briefly, mouse hippocampus was homogenized (10 μL/mg) in 0.1 M Na/K phosphate buffer (PB) (pH 7.5) at 4°C followed by centrifugation at 30,000 × g for 5 min. […] Absorbance at 415 nm was quantified using VICTOR plate reader (Perkin–Elmer Inc., Waltham, Massachusetts, United States) at 2-min intervals from time 0 (tissue sample addition) up to 10 min. Acetylcholinesterase activity was expressed as units/L. One unit of AChE is the amount of enzyme that catalyzes the production of 1.0 μmol of thiocholine per minute at room temperature at pH 7.5.
Acetylcholinesterase activity is expressed as percent of that determined in the absence of drugs.

[2] = biological target: T2, sigma-1 receptor (Homo sapiens, UniProt Q99720); assay: Eurofins CEREP sigma-1 receptor test; format: binding; details: MEF at a concentration as high as 1 μM; data not shown
T2 construct: Eurofins CEREP

[3] = biological target: 5-HT3 receptors; set-up: method as in Thompson et al., 2007; Janowsky et al., 2014; details: ref Thompson et al., 2007; Janowsky et al., 2014; cited from earlier work
[4] = biological target: 5-HT1A; set-up: method as in Thompson et al., 2007; Janowsky et al., 2014; details: ref Thompson et al., 2007; Janowsky et al., 2014; cited from earlier work
[5] = tested on: Cx-mediated astroglial cellular coupling; set-up: method as in Jeanson et al., 2016; details: same concentration range as reached under the treatment conditions; ref Jeanson et al., 2016; cited from earlier work
[6] = in vivo; details: rat
Protocol: Drugs were administered p.o., once per day for 14 days.
Blood was collected on the 14th treatment day, just prior to drug administration (T0) and then 30 min, 1, 2, 4, 8, and 24 h later. Blood was collected by retro-orbital puncture except for the last collection, which was made by intracardiac puncture. After coagulation, blood samples were centrifuged at 3,000 × g for 15 min, and serum was collected and stored at −80°C. Rats were sacrificed by decapitation immediately after the last blood collection, and their brains including brainstem and cerebellum were removed as one piece, placed on tinfoil precooled on dry ice and stored at −80°C until drug quantifications.
One volume of brain or serum samples was added to three volumes of human serum EDTA K3, and the mixture was homogenized under magnetic stirring for 15 min for analysis using a Sciex API4000 Qtrap mass spectrometer coupled to a Shimadzu HPLC system (Shimadzu Corporation, Marne-la-Vallée, France).
(A,C) Blood samples were collected before treatment (T0) and then at 0.5, 1, 2, 4, 8, and 24 h after the last administration on day 14. (B,D) Brain samples were collected on day 15, 24 h after the last drug administration. […] No statistical analysis applicable (C,D). Bars in black indicate combination treatments.

[7] = rat, in vivo; cited from earlier work
[8] = biological target: noradrenaline transporters; set-up: method as in Janowsky et al., 2014; details: ref Janowsky et al., 2014; cited from earlier work
[9] = tested on: Aβ25–35 peptide-injected mice; assay: Novel object recognition (NOR) task in Aβ25–35-injected mice; format: in vivo
Protocol: (§1) Both novel object recognition (NOR) and novel object location (NOL) tests were carried out in an open-field arena during three phases ([Leger et al., 2013]; [Vogel-Ciernia and Wood, 2014]; [Lueptow, 2017]). (i) For the habituation phase on the first day, mice were allowed to freely explore the empty apparatus. (ii) On the second day, two identical objects were placed at two opposite edges of the arena. Time spent by the mouse exploring the two objects was recorded. (iii) Twenty-four hours later, one of the two familiar objects was replaced by a novel one (NOR) or displaced (NOL). Mice were allowed to explore the whole arena during 10 min for each of the three phases. The preference index was calculated as the ratio of the duration of contacts with the novel/displaced object over the total duration of contacts with the two objects. Locomotion was recorded using EthoVision software (Noldus, Paris, France).

[10] = tested on: ACh outflow in the hippocampus; assay: Hippocampal microdialysis and quantification of ACh; format: in vivo, mice
Protocol: Mice were anesthetized with isoflurane, placed in a stereotaxic frame and bilaterally implanted with probes in both left and right hippocampi.
Concentrations of ACh in the microdialysis samples were analyzed by the Pronexus Analytical AB company (Stockholm, Sweden) using UHPLC tandem mass spectrometry (MS/MS). Briefly, the UHPLC-MS/MS system included a PAL autosampler (CTC Analytics, Zwingen, Switzerland), an Advance UHPLC pump, and an EVOQ Elite triple quadrupole mass spectrometer (Bruker Daltonics, Fremont, CA, United States) equipped with electrospray ionization source operating in a positive mode at +4,500 V. The source parameters were as follows: probe gas flow: 50, nebulizer gas flow: 60, probe temperature: +300°C, cone gas flow: 30, cone temperature: +200°C, CID gas: Ar 1.5 mTorr. A Titan PFP column (100 × 2.1 mm, 1.9 μm, 120 Å pore size) purchased from Sigma-Aldrich (Sweden) was used for UHPLC. Deuterated ACh (acetylcholine-1,1,2,2-d4 bromide; ACh-d4), used as internal standard, was purchased from C/D/N Isotopes (QMX Laboratories, Dunmow CM6 2PY, United Kingdom). Typically, 10 μL of aCSF or hippocampal microdialysate was mixed with 20 μL of ACh-d4 internal standard (50 nM, in aCSF), and 5 μL of the mixture was injected into the column. The mobile phase A was 0.1% (vol/vol) formic acid in water; the mobile phase B was acetonitrile with 0.1% formic acid. The linear elution gradient was as follows: 0–0.5 min: 5% B; 3.5 min: 55% B; 3.6 to 4.0 min: 70% B; 4.1 min, 5% B. The flow rate was 400 μL/min, and the total run-to-run time was 4.8 min. The calibration curve was linear in the range of 0.1 to 409.6 nM ACh (R^2 = 0.999); the estimated limit of detection was 0.05 nM, and the lower limit of quantification was 0.15 nM.
. 1 mg/kg, i.p.), or vehicle (NaCl 0.9%). Values are expressed as means ± SEM, n = 4–7 per group. Two-way ANOVA followed by Fisher least significant difference: *P < 0.05, **P < 0.01 vs Vehicle; […]. Acetylcholinesterase activity is expressed as percent of that determined in the absence of drugs. […]

[11] = tested on: Aβ25–35 peptide-injected mice; assay: Morris water maze in Aβ25–35-injected mice
From the text: Control groups received the vehicles only under the very same conditions (volume, time, route of administration) as tested drugs.
Both peptides Aβ25–35 and Sc.Aβ (scramble Aβ25–35) were purchased from PolyPeptides (Strasbourg, France).
Mice were placed in a circular pool with external cues in the room. […] Training consisted of three swims with 20-min intertrial time each day for 5 days, performed between days 11 and 15 after Aβ25–35 peptide or Sc.Aβ peptide i.c.v. injection. Random starting positions were selected each day, and each animal was allowed a 90-s swim to find the platform. Probe test was performed 24 h after the last swim (day 16 after peptide injection). The platform was removed, and each animal was allowed a free 60-s swim. The time spent in each quadrant was determined. Swimming was recorded using EthoVision software (Noldus).

[12] = tested on: scopolamine-treated mice; assay: Novel object recognition (NOR) task after scopolamine challenge; format: in vivo; details: scopolamine 0.5 mg/kg s.c.
Protocol: as §1

[13] = biological target: 5-HT2C; set-up: method as in Thompson et al., 2007; Janowsky et al., 2014; details: ref Thompson et al., 2007; Janowsky et al., 2014; cited from earlier work
[14] = tested on: scopolamine-treated mice; assay: Y-maze spontaneous alternation task after scopolamine challenge; details: for Spontaneous alternation (Y-maze): effect on scopolamine-induced deficit: scopolamine 0.5 mg/kg s.c.
Protocol: Mefloquine (Sigma-Aldrich, L’Isle d’Abeau Chesnes, France) and DPZ (Sigma-Aldrich) were dissolved in 2% dimethyl sulfoxide (DMSO) and administered acutely either intraperitoneally (i.p.) (5 mL/kg) or by oral gavage (p.o.) (10 mL/kg). Scopolamine (Sigma-Aldrich) was administered subcutaneously (s.c.) (5 mL/kg) in saline solution (0.9% NaCl).
Mice were placed at the end of one arm of a Y-maze and allowed to move freely through the maze during an 8-min session. Spontaneous alternation was defined as entries into all three arms on consecutive occasions. […] The number of total arm entries during the 8-min session was used to quantify locomotor activity.

[15] = tested on: scopolamine-treated mice injected with sh-GFP, sh-Cx30 or sh-Cx43; assay: Novel object location (NOL) task in lentiviral vector-injected, scopolamine-treated mice; format: in vivo
[16] = tested on: astrocyte Cx expression; set-up: method as in Biswas et al., 2018; details: ref Biswas et al., 2018; cited from earlier work

T2 sequence (Q99720 whole entry, species assumed): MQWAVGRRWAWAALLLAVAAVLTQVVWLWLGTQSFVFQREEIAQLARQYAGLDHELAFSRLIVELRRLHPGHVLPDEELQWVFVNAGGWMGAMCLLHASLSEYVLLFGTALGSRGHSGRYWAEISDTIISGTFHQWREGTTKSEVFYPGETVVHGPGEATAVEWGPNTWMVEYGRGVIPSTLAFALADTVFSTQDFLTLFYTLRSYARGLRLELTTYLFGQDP

Compound: OC(c1cc(C(F)(F)F)nc2c(C(F)(F)F)cccc12)C1CCCCN1 (stereo not shown) [MEF, Mefloquine]
- Effect of MEF on the potency of DPZ to inhibit AChE activity ([1]; MEF 0.5–4 μM added to DPZ, brain extracts): did not modify the potency of DPZ to inhibit AChE activity; also recorded: failed to affect DPZ-induced inhibition of AChE activity
- Effect of MEF on AChE activity ([1]; even at 10 times the concentration reached in the brain): devoid of any effect on AChE activity
- Interference with sigma-1 receptor [2]: does not interfere with sigma-1 receptor
- Ki [3]: > 1000 nM
- Ki [4]: > 1000 nM
- Cx-mediated astroglial cellular coupling [5]: efficiently reduces Cx-mediated astroglial cellular coupling
- concentration at 24 h [6]: ~500 nM
- Crossing of the blood–brain barrier [7]: able to cross the blood–brain barrier
- Ki [8]: > 1000 nM
- NOR test phase: effect on Aβ-induced impairment (preference index) ([9]; MEF 1 mg/kg p.o. daily from day 1, Aβ25–35 i.c.v.): did not reverse the Aβ-induced impairment
- Hippocampal ACh outflow ([10]; MEF 1 mg/kg i.p. alone): did not significantly modify ACh outflow
- Morris water maze learning (swim latency): effect on Aβ-induced memory deficit ([11]; MEF 1 mg/kg p.o. daily): showed no effect
- NOR test session: effect on scopolamine-induced loss of novel object preference ([12]; MEF 1 mg/kg i.p.): Neither MEF1 i.p., nor DPZ0.25 i.p., prevented the scopolamine effect
- Ki [13]: > 1000 nM

Compound: CN1[C@@H]2C[C@@H](OC(=O)[C@H](CO)c3ccccc3)C[C@H]1[C@@H]1O[C@@H]12 [scopolamine, Scopolamine]
- Spontaneous alternation (Y-maze): effect of scopolamine vs vehicle-treated mice ([14]; scopolamine 0.5 mg/kg s.c. 20 min before task): significantly impaired spontaneous alternation
- NOR test session: effect of scopolamine on exploration of the novel object [12]: abolished the increase in exploration time of the novel object
- NOL task: preference index for the displaced object ([15]; scopolamine 0.5 mg/kg s.c., all LV-injected mice): ~50%

Compound: COc1cc2c(cc1OC)C(=O)C(CC1CCN(Cc3ccccc3)CC1)C2 (stereo not shown) [DPZ, Donepezil]
- Astrocyte Cx expression levels [16]: not to significantly alter astrocyte Cx expression levels
- Spontaneous alternation (Y-maze): effect on scopolamine-induced deficit ([14]; DPZ 0.1 mg/kg i.p. 40 min before task): exerted no effect
- Spontaneous alternation (Y-maze): effect on scopolamine-induced deficit ([14]; DPZ 0.25 mg/kg p.o. 40 min before task): did not reverse scopolamine-induced deficit
- Spontaneous alternation (Y-maze): effect on scopolamine-induced deficit ([14]; DPZ 0.5 mg/kg i.p. 40 min before task): significantly reversed the scopolamine-induced deficit
- Hippocampal ACh outflow ([10]; DPZ 0.25 mg/kg i.p. alone): did not significantly modify ACh outflow
- Increase of hippocampal ACh levels ([10]; DPZ 1 mg/kg i.p., 20 min after injection): up to 2.5 fold
- Morris water maze learning (swim latency): effect on Aβ-induced memory deficit ([11]; DPZ 0.25 mg/kg p.o. daily): showed no effect
- Morris water maze probe test: time spent in target quadrant ([11]; DPZ 1 mg/kg p.o. daily, day 16): restored performance up to the level noted in Sc.Aβ-injected control mice
- Morris water maze learning (swim latency): effect on Aβ-induced memory deficit ([11]; DPZ 1 mg/kg p.o. daily, learning days 2 to 5): significantly reversed the Aβ-induced memory deficits
- NOR test session: effect on scopolamine-induced loss of novel object preference ([12]; DPZ 0.25 mg/kg i.p.): Neither MEF1 i.p., nor DPZ0.25 i.p., prevented the scopolamine effect
- NOR test session: effect on scopolamine-induced loss of novel object preference ([12]; DPZ 1 mg/kg i.p.): restore exploration preference of the novel object
- NOL task: effect on scopolamine-induced memory deficit ([15]; DPZ 0.25 mg/kg i.p., sh-Cx30 group): significantly reduced the scopolamine effect
- NOL task: effect on scopolamine-induced memory deficit ([15]; DPZ 0.25 mg/kg i.p., sh-Cx43 group): significantly reduced the scopolamine effect
- NOL task: effect on scopolamine-induced memory deficit ([15]; DPZ 0.25 mg/kg i.p., sh-GFP injected mice): unable to prevent the memory deficit caused by scopolamine
- NOL task: effect on scopolamine-induced memory deficit ([15]; DPZ 1 mg/kg i.p., all groups (sh-GFP, sh-Cx30, sh-Cx43)): able to prevent NOL memory deficits induced by scopolamine

Compound: Aβ: Aβ25–35 peptide injected i.c.v. to induce Alzheimer’s disease–like memory deficits (GSNKGAIIGLM; Amyloid-beta protein 42; UniProt P05067 696-706, looked up, fragment)
- NOR test phase: effect of Aβ administration on exploration of the novel object ([9]; 9 nmol Aβ25–35 i.c.v.): abolished the increase in exploration time of the novel object
- Morris water maze learning: effect of Aβ i.c.v. injection vs Sc.Aβ ([11]; 9 nmol Aβ25–35 i.c.v., learning days 3–5): induced a significant memory deficit
